Patent US20060045856A1, “Composition containing a dihydroxyacetone precursor” (priority 2004, published 2006)

Assays:
[1] = Maillard browning test, tanning test 1 (test substance in miglyol reacted with lysine); details: for Maillard browning colour after reacting with lysine: Tanning test 1, 0.1M in miglyol + 1M Lysine aqueous solution, room temperature
Excerpt: (§1) The ability of compounds according to formula I to induce an artificial tanning on the skin can roughly be estimated using a simple Maillard browning test. This visual test is based on the principle that the reaction of skin with DHA to produce an artificial tan proceeds through a complex set of reactions (Maillard reaction) with free amino acids of skin proteins, particularly with arguinine, lysine and histidine.
(§2) The tanning ability of 2,5-dipalmitoyloxymethyl-[1,4]dioxane-2,5-diol (A) is evaluated by means of the Maillard browning effect after reacting with lysine in different solvents (water and the cosmetic oil miglyol) and compared with those of reference compounds: DHA and monomeric DHA-palmitic acid monoester (B) under the same conditions. Besides that, the tanning effect of 2,5-dipalmitoyloxymethyl-[1,4]dioxane-2,5-diol in the presence of lipases (enzymes used by the body to hydrolyse fats) is also studied.

[2] = Maillard browning test, tanning test 2 (aqueous test substance reacted with lysine, with or without lipase); details: room temperature; for Maillard browning colour after reacting with lysine: 0.1M aqueous solution or suspension + 1M Lysine aqueous solution; for Maillard browning colour after reacting with lysine, + 1% lipase: aqueous
Excerpt: as §1, §2

[3] = DHA monomer/dimer content in aqueous solution at elevated temperature; assay type: physicochemical; details: DHA solutions at 30-50° C.
Excerpt: It is assumed that the improved tanning effect at elevated temperatures in the case of 1,3-dihydroxyacetone is connected with the following mechanism. As a raw material, DHA is in the form of a powder and consists of dimers. Dissolved in water, some of the dimers convert to the active monomeric form, which brings about the tanning reaction. At an elevated water temperature, the amount of monomers increases. […] At the same time, the elevated temperature increases the reaction rate of the tanning reaction. […] It is therefore preferred according to the invention when the solution of the self-tanning substance is heated for about 15 min, but at least about 10 min, before the solution is applied to the human skin.

Row | Compound | Maillard browning colour after reacting with lysine ([1]; 5 h) | Maillard browning colour after reacting with lysine ([1]; 1 day) | Maillard browning colour after reacting with lysine ([1]; 8 days) | Maillard browning colour after reacting with lysine ([2]; 1 h) | More active DHA monomers present than in DHA solutions at 20° C. [3] | Ability to undergo Maillard browning reactions ([1]; overall conclusion from tanning tests 1 and 2) | Maillard browning colour after reacting with lysine ([2]; 2 days) | melting point [°C] | Maillard browning colour after reacting with lysine ([1]; 1 h) | Maillard browning colour after reacting with lysine ([2]; 5 h) | Maillard browning colour after reacting with lysine ([2]; 1 day) | Maillard browning colour after reacting with lysine, + 1% lipase ([2]; 1 h) | Maillard browning colour after reacting with lysine, + 1% lipase ([2]; 1 day)
1 | O=C(CO)CO [DHA, 1,3-dihydroxyacetone] | Light yellow | Brown | Dark brown | Brown | up to 30% | – | – | – | – | – | – | – | –
2 | CCCCCCCCCCCCCCCC(=O)OCC1(O)COC(O)(COC(=O)CCCCCCCCCCCCCCC)CO1 (stereo not shown) [A, 2,5-dipalmitoyloxymethyl-[1,4]dioxane-2,5-diol] | Light yellow | Yellow | Brown | – | – | able to undergo Maillard browning reactions | Brown | 95.2 | – | – | – | – | –
3 | CCCCCCCCCCCCCCCC(=O)OCC(=O)CO [B, monomeric DHA-palmitic acid monoester] | Yellow | Brown | Dark brown | – | – | – | – | – | Light yellow | Yellow | Brown | Yellow | Brown
